According to DBAASP:
Values after ≈ are worked out from the molar mass of the structure shown. Blank lines part the entries; values can stand above or below the compound they belong to.

Assays:
Assay in all cases: ≥ marks a high value that may be exact or a test limit, other limits are often not marked, values filed in µg/mL are converted to µM
[1] = system: Candida albicans ATCC 10231
[2] = system: Enterococcus faecalis PCM 2673
[3] = system: Escherichia coli ATCC 25922
[4] = system: Pseudomonas aeruginosa ATCC 9027
[5] = system: Staphylococcus aureus ATCC 25923
[6] = system: Leuconostoc lactis
[7] = system: Micrococcus luteus ATCC 9341
[8] = system: Staphylococcus epidermidis ATCC 14990
[9] = system: Streptococcus uberis
[10] = system: Bacillus subtilis 168 HT
[11] = system: Escherichia coli K12 MG1655
[12] = system: Staphylococcus aureus ST88
[13] = system: Staphylococcus haemolyticus 527
[14] = system: Acinetobacter baumannii CCARM 12035
[15] = system: Bacillus subtilis KCTC 3068
[16] = system: Enterococcus faecalis KCTC 2011
[17] = system: Escherichia coli CCARM 1229
[18] = system: Escherichia coli KCTC 1682
[19] = system: Pseudomonas aeruginosa CCARM 2095
[20] = system: Pseudomonas aeruginosa KCTC 1637
[21] = system: Salmonella typhimurium CCARM 8009
[22] = system: Salmonella typhimurium KCTC 1926
[23] = system: Staphylococcus aureus KCTC 1621
[24] = system: Escherichia coli
[25] = system: Salmonella enterica subsp. enterica serovar Enteritidis
[26] = system: Salmonella sp.
[27] = system: Staphylococcus aureus ATCC 29213
[28] = system: Staphylococcus aureus ATCC 43300
[29] = system: Yersinia enterocolitica
[30] = system: Pseudomonas aeruginosa H1001
[31] = system: Batrachochytrium dendrobatidis

SMILES: CC[C@H](C)[C@H](NC(=O)[C@H](C)NC(=O)[C@H](Cc1ccccc1)NC(=O)[C@H](CC(C)C)NC(=O)CN)C(=O)N[C@H](C(=O)N[C@@H](CCCCN)C(=O)N[C@@H](CCCCN)C(=O)N[C@H](C(=O)N[C@@H](C)C(=O)N[C@@H](CCC(=O)O)C(=O)N[C@@H](CO)C(=O)N[C@@H](Cc1ccccc1)C(N)=O)[C@@H](C)CC)[C@@H](C)CC [GLFAIIKKIAESF]
MIC [1]: 44.5 µM (≈ 64 µg/mL)
MIC [2]: 22.3 µM (≈ 32 µg/mL)
MIC [3]: 5.57 µM (≈ 7.99 µg/mL)
MIC [4]: 44.5 µM (≈ 64 µg/mL)
MIC [5]: 11.1 µM (≈ 16 µg/mL)

SMILES: CC[C@H](C)[C@H](NC(=O)[C@H](Cc1cnc[nH]1)NC(=O)[C@@H](NC(=O)[C@H](CC(C)C)NC(=O)[C@@H](NC(=O)[C@@H](NC(=O)[C@H](CCCN=C(N)N)NC(=O)[C@H](CC(C)C)NC(=O)[C@H](Cc1c[nH]c2ccccc12)NC(=O)[C@H](CO)NC(=O)[C@H](CCCCN)NC(=O)[C@@H](NC(=O)[C@H](CC(C)C)NC(=O)[C@H](Cc1cnc[nH]1)NC(=O)[C@@H](NC(=O)[C@@H](NC(=O)[C@@H](NC(=O)[C@H](Cc1cnc[nH]1)NC(=O)[C@H](CC(C)C)NC(=O)[C@H](CCC(N)=O)NC(=O)[C@H](CCCCN)NC(=O)[C@H](Cc1ccccc1)NC(=O)[C@H](CO)NC(=O)[C@H](CCCCN)NC(=O)CNC(=O)[C@H](CCCCN)NC(=O)[C@@H](N)CCCCN)[C@@H](C)CC)[C@@H](C)CC)C(C)C)C(C)C)[C@@H](C)O)[C@@H](C)CC)[C@@H](C)O)C(=O)O [KKGKSFKQLHIIVHLVKSWLRTILTHI]
MIC [10]: 10 µM (≈ 32.2 µg/mL)
MIC [11]: 10 µM (≈ 32.2 µg/mL)
MIC [12]: 19.9 µM (≈ 64.2 µg/mL)
MIC [13]: 10 µM (≈ 32.2 µg/mL)

SMILES: CC[C@H](C)[C@H](NC(=O)[C@H](CCCN=C(N)N)NC(=O)[C@H](CCCN=C(N)N)NC(=O)[C@@H]1CCCN1C(=O)[C@@H]1CCCN1C(=O)[C@H](CCCN=C(N)N)NC(=O)[C@@H]1CCCN1C(=O)[C@H](CCCN=C(N)N)NC(=O)[C@@H]1CCCN1C(=O)[C@H](CC(C)C)NC(=O)[C@H](Cc1ccc(O)cc1)NC(=O)[C@@H]1CCCN1C(=O)[C@@H]1CCCN1C(=O)[C@H](CCCCN)NC(=O)[C@H](CC(=O)O)NC(=O)[C@@H](N)C(C)C)C(=O)N[C@@H](Cc1ccc(O)cc1)C(=O)N[C@@H](Cc1ccc(O)cc1)C(=O)N[C@@H](CCCN=C(N)N)C(=O)NCC(=O)O [VDKPPYLPRPRPPRRIYYRG]
MIC [30]: 0.12 µM (≈ 0.3 µg/mL)

SMILES: CC[C@H](C)[C@H](NC(=O)CNC(=O)[C@H](CO)NC(=O)[C@H](CC(C)C)NC(=O)[C@@H](NC(=O)[C@H](CCCN=C(N)N)NC(=O)CNC(=O)[C@@H](NC(=O)[C@H](CC(C)C)NC(=O)[C@@H]1CCCN1C(=O)[C@H](CC(C)C)NC(=O)[C@@H](N)Cc1c[nH]c2ccccc12)[C@@H](C)CC)C(C)C)C(=O)N[C@@H](CC(C)C)C(N)=O [WLPLIGRVLSGIL]
MIC [31]: 25.1 µM (≈ 36 µg/mL)

Second part, led by results:

MIC [1]: 356 µM (≈ 512 µg/mL)
MIC [2]: ≥ 89 µM
MIC [3]: 356 µM (≈ 512 µg/mL)
MIC [4]: > 356 µM
MIC [5]: > 356 µM
SMILES: CC[C@H](C)[C@H](NC(=O)[C@H](CC(=O)O)NC(=O)[C@H](Cc1ccccc1)NC(=O)[C@H](CC(C)C)NC(=O)CN)C(=O)N[C@H](C(=O)N[C@@H](CCCCN)C(=O)N[C@@H](CCCCN)C(=O)N[C@@H](C)C(=O)N[C@@H](C)C(=O)N[C@@H](CCC(=O)O)C(=O)N[C@@H](CO)C(=O)N[C@@H](Cc1ccccc1)C(N)=O)[C@@H](C)CC [GLFDIIKKAAESF]

MIC [6]: 12 µM (≈ 26.3 µg/mL)
MIC [7]: ≥ 100 µM
MIC [8]: ≥ 100 µM
MIC [9]: ≥ 50 µM
SMILES: CC[C@H](C)[C@H](NC(=O)[C@H](CC(C)C)NC(=O)[C@H](Cc1cnc[nH]1)NC(=O)CNC(=O)[C@@H](NC(=O)[C@@H](NC(=O)CNC(=O)[C@@H](NC(=O)[C@@H](NC(=O)[C@H](CCCCN)NC(=O)[C@@H]1CCCN1C(=O)[C@H](CC(C)C)NC(=O)[C@H](Cc1ccccc1)NC(=O)[C@H](CO)NC(=O)[C@H](CC(C)C)NC(=O)[C@H](CC(C)C)NC(=O)CN)C(C)C)[C@@H](C)CC)C(C)C)[C@@H](C)CC)C(=O)N[C@@H](Cc1cnc[nH]1)C(=O)N1CCC[C@H]1C(=O)N1CCC[C@H]1C(=O)N[C@@H](CO)C(=O)O [GLLSFLPKVIGVIGHLIHPPS]

MIC [14]: 8 µM (≈ 20.3 µg/mL)
MIC [15]: ≥ 32 µM
MIC [16]: ≥ 128 µM
MIC [17]: 2 µM (≈ 5.08 µg/mL)
MIC [18]: 2 µM (≈ 5.08 µg/mL)
MIC [19]: 4 µM (≈ 10.2 µg/mL)
MIC [20]: 4 µM (≈ 10.2 µg/mL)
MIC [21]: 2 µM (≈ 5.08 µg/mL)
MIC [22]: 4 µM (≈ 10.2 µg/mL)
MIC [23]: ≥ 32 µM
SMILES: CC[C@H](C)[C@H](NC(=O)CNC(=O)[C@H](CC(=O)O)NC(=O)[C@H](CCCN=C(N)N)NC(=O)[C@@H](NC(=O)[C@H](CC(N)=O)NC(=O)[C@H](CCCN=C(N)N)NC(=O)CNC(=O)[C@@H](NC(=O)[C@H](CCCCN)NC(=O)[C@H](CCC(=O)O)NC(=O)[C@@H](NC(=O)[C@H](CCCCN)NC(=O)[C@H](CCCCN)NC(=O)[C@H](Cc1ccccc1)NC(=O)[C@@H](NC(=O)[C@H](CCCCN)NC(=O)[C@H](C)NC(=O)[C@@H](N)CCCN=C(N)N)[C@@H](C)CC)[C@@H](C)CC)C(C)C)C(C)C)C(=O)N[C@H](C(=O)N[C@@H](CCCCN)C(=O)N[C@@H](C)C(N)=O)[C@@H](C)CC [RAKIFKKIEKVGRNVRDGIIKA]

MIC [14]: 4 µM (≈ 10.6 µg/mL)
MIC [15]: 8 µM (≈ 21.2 µg/mL)
MIC [16]: ≥ 64 µM
MIC [17]: 2 µM (≈ 5.31 µg/mL)
MIC [18]: 1 µM (≈ 2.65 µg/mL)
MIC [19]: 2 µM (≈ 5.31 µg/mL)
MIC [20]: 2 µM (≈ 5.31 µg/mL)
MIC [21]: 2 µM (≈ 5.31 µg/mL)
MIC [22]: 2 µM (≈ 5.31 µg/mL)
MIC [23]: 16 µM (≈ 42.5 µg/mL)
SMILES: CC[C@H](C)[C@H](NC(=O)CNC(=O)[C@H](CC(=O)O)NC(=O)[C@H](CCCN=C(N)N)NC(=O)[C@@H](NC(=O)[C@H](CC(N)=O)NC(=O)[C@H](CCCN=C(N)N)NC(=O)CNC(=O)[C@@H](NC(=O)[C@H](CCCCN)NC(=O)[C@H](CCC(=O)O)NC(=O)[C@@H](NC(=O)[C@H](CCCCN)NC(=O)[C@H](CCCCN)NC(=O)[C@H](Cc1c[nH]c2ccccc12)NC(=O)[C@@H](NC(=O)[C@H](CCCCN)NC(=O)[C@H](Cc1ccccc1)NC(=O)[C@@H](N)CCCN=C(N)N)[C@@H](C)CC)[C@@H](C)CC)C(C)C)C(C)C)C(=O)N[C@H](C(=O)N[C@@H](CCCCN)C(=O)N[C@@H](C)C(N)=O)[C@@H](C)CC [RFKIWKKIEKVGRNVRDGIIKA]

MIC [3]: 3.37 µM (≈ 6.25 µg/mL)
MIC [24]: 3.01 µM (≈ 5.59 µg/mL)
MIC [25]: 6.73 µM (≈ 12.5 µg/mL)
MIC [26]: 2.69 µM (≈ 5 µg/mL)
MIC [27]: 26.9 µM (≈ 50 µg/mL)
MIC [28]: 13.5 µM (≈ 25 µg/mL)
MIC [29]: 3.37 µM (≈ 6.25 µg/mL)
SMILES: CC[C@H](C)[C@H](NC(=O)[C@H](CCCCN)NC(=O)[C@@H](NC(=O)[C@H](CCC(N)=O)NC(=O)[C@@H](N)CCCN=C(N)N)[C@@H](C)CC)C(=O)N[C@@H](Cc1c[nH]c2ccccc12)C(=O)N[C@@H](CCCN=C(N)N)C(=O)N[C@@H](CCCN=C(N)N)C(=O)N[C@@H](CCSC)C(=O)N[C@@H](CCCCN)C(=O)N[C@@H](Cc1c[nH]c2ccccc12)C(=O)N[C@@H](CCCCN)C(=O)N[C@@H](CCCCN)C(N)=O [RQIKIWRRMKWKK]

MIC [10]: 22.4 µM (≈ 32.1 µg/mL)
MIC [11]: ≥ 100 µM
MIC [12]: ≥ 100 µM
SMILES: CC[C@H](C)[C@H](NC(=O)[C@H](CC(C)C)NC(=O)[C@@H](N)C(C)C)C(=O)N[C@@H](CCCN=C(N)N)C(=O)NCC(=O)N[C@@H](CC(C)C)C(=O)N[C@H](C(=O)N[C@@H](Cc1cnc[nH]1)C(=O)N[C@@H](CCSC)C(=O)N[C@@H](CC(C)C)C(=O)N[C@@H](CCCN=C(N)N)C(=O)NCC(=O)NCC(=O)O)[C@@H](C)CC [VLIRGLIHMLRGG]
MIC [13]: ≥ 100 µM
